Measurements: ChEMBL document CHEMBL1201862, “PubChem BioAssay data set” (2004)
The source made the active and inactive calls.

Legend:
[1] = biological target: Glyceraldehyde-3-phosphate dehydrogenase (Homo sapiens, UniProt P04406)
[2] = biological target: T1, Alkaline phosphatase, tissue-nonspecific isozyme (Homo sapiens, UniProt P05186); experiment: human TNAP enzyme inhibitors, SAR follow-up, biochemical, luminescent, dose response (AID 1056)
T1 sequence (P05186 whole entry): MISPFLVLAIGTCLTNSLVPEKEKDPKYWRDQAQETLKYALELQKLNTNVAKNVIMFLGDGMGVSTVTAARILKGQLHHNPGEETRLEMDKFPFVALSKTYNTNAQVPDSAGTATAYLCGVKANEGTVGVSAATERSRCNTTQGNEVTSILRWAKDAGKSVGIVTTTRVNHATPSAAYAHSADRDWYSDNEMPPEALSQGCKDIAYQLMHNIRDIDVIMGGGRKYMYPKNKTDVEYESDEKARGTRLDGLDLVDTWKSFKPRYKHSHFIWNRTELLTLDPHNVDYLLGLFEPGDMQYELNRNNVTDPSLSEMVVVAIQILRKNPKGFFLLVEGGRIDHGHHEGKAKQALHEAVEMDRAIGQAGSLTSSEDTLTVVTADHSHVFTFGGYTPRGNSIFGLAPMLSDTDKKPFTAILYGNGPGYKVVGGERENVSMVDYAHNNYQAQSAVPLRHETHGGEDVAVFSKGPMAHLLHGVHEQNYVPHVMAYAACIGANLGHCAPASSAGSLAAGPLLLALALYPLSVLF

[3] = biological target: Serine/threonine-protein phosphatase PP1-alpha catalytic subunit (Homo sapiens, UniProt P62136); experiment: PP1 phosphatase inhibitors, dose response, biochemical, fluorescence (AID 2403);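 note: phosphatase turnover of OMFP into fluorescent 3-O-methylfluorescein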
[4] = biological target: T2, Serine/threonine-protein phosphatase (Homo sapiens, UniProt Q9BPW0); experiment: Counterscreen for inhibitors of PP1: fluorescence-based biochemical high throughput dose response assay to identify inhibitors of Protein Phosphatase 5 (PP5). [Related pubchem assays: 2034 (Summary (PP5 inhibitors)), 1987 (PP5 inhibitors in singlate), 2235 (PP1 inhibitors in singlate)]
T2 sequence (Q9BPW0 whole entry): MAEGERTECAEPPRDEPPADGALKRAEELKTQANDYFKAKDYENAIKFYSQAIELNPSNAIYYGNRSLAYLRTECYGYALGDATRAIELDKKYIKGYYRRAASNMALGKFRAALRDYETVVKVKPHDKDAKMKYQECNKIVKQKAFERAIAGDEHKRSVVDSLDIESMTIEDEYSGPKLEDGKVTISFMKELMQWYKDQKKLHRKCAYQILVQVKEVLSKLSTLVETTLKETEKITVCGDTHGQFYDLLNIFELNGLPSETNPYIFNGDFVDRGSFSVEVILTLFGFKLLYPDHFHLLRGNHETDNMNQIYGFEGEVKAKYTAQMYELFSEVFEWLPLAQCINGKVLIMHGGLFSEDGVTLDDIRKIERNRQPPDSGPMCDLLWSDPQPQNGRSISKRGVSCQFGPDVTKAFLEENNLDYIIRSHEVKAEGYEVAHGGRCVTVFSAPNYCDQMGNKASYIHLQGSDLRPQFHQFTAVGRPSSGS

[5] = inhibitors of intracellular T. cruzi replication, confirmation, NIH3T3 host cells, beta-gal luminescence (AID 2044); assay type: functional, cell-based;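 note: intracellular parasites grown in NIH/3T3 mouse fibroblasts as host cells; luminescent beta-galactosidase reporter signal from transgenic T. cruzi replicating inside host cells; inhibitors lower the luminescence signal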
[6] = cytotoxicity toward NIH3T3 fibroblasts, dose response, counter-screen, cell-based, ATP luminescence, mouse fibroblasts (AID 2010); assay type: functional;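 note: cells exposed to compound for about 90 hours before reading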
[7] = biological target: T3, Sentrin-specific protease 8 (Homo sapiens, UniProt Q96LD8); assay type: functional
T3 sequence (Q96LD8 whole entry): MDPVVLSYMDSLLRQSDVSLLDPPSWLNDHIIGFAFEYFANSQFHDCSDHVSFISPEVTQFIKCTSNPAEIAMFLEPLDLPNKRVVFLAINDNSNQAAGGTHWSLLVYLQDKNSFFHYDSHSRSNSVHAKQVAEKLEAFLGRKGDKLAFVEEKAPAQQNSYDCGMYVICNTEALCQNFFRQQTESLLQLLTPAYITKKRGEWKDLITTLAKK

[8] = biological target: T4, DNA repair protein RAD52 homolog (Homo sapiens, UniProt P43351); assay type: functional, biochemical
T4 sequence (P43351 whole entry): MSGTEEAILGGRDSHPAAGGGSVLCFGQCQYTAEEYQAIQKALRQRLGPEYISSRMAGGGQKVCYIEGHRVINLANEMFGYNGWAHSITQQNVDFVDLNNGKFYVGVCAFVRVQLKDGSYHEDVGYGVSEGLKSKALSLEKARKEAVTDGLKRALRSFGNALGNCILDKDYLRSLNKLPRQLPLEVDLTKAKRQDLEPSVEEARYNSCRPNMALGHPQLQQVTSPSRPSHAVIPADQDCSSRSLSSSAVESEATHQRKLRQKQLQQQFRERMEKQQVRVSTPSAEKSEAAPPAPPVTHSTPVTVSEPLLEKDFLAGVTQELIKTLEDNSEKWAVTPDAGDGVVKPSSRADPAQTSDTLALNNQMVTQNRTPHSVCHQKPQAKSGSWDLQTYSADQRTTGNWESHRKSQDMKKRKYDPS

Nonstructural protein 1 = Nonstructural protein 1 (Influenza A virus, UniProt Q194T2); assay type: functional, Influenza A virus (A/California/07/2009(H1N1))
[9] = biological target: T5, Ubiquitin-conjugating enzyme E2 N (Homo sapiens, UniProt P61088); assay type: functional
T5 sequence (P61088 whole entry): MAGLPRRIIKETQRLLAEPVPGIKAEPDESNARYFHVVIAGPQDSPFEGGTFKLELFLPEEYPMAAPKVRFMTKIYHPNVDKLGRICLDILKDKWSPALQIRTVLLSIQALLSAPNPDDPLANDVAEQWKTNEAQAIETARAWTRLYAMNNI

[10] = biological target: T5, Ubiquitin-conjugating enzyme E2 N; assay type: functional; remark: listed apart in the source
Bcl-2-related protein A1 = biological target: T6, Bcl-2-related protein A1 (Mus musculus, UniProt Q07440); assay type: functional;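 note: confirmatory dose–response counterscreen on Bfl-1, used to check hits from a UBC13 polyubiquitin inhibitor campaign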
T6 sequence (Q07440 whole entry): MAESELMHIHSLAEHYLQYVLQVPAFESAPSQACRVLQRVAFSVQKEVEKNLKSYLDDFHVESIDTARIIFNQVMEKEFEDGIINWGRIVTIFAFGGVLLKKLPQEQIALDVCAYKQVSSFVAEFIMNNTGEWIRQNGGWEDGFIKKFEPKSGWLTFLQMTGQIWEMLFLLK

[11] = biological target: T3, Sentrin-specific protease 8; assay type: functional; remark: listed apart in the source
[12] = biological target: Peroxisome proliferator-activated receptor gamma/Nuclear receptor coactivator 3 (Homo sapiens, UniProt P37231); experiment: TR-FRET dose response biochemical High Throughput Screening assay for agonists of the steroid receptor coactivator 3 (SRC-3) recruitment by the peroxisome proliferator-activated receptor gamma (PPAR gamma): non-selective agonists. [Related pubchem assays: 1301 (Confirmation screen.), 1048 (Primary screen.)]; assay type: functional
[13] = biological target: Peroxisome proliferator-activated receptor gamma/Nuclear receptor coactivator 2 (Homo sapiens, UniProt P37231); experiment: (§1) TR-FRET dose response biochemical High Throughput Screening assay for agonists of the steroid receptor coactivator 2 (SRC-2) recruitment by the peroxisome proliferator-activated receptor gamma (PPAR gamma): non-selective agonists. [Related pubchem assays: 1297, 1032 ]; assay type: functional
[14] = biological target: Peroxisome proliferator-activated receptor gamma/Nuclear receptor coactivator 1 (Homo sapiens, UniProt P37231); experiment: as §1, with “1 (SRC-1)” for “2 (SRC-2)”, “assays (depositor defined):AID1300, AID1808, AID504735, AID631]” for “assays: 1297, 1032 ]”; assay type: protein assay
Coagulation factor XII = biological target: T7, Coagulation factor XII (Homo sapiens, UniProt P00748); assay type: functional;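 note: activated factor XIIa alpha cleaving a fluorogenic AMC peptide substrate; inhibitor potency from loss of enzyme activity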
T7 sequence (P00748 whole entry): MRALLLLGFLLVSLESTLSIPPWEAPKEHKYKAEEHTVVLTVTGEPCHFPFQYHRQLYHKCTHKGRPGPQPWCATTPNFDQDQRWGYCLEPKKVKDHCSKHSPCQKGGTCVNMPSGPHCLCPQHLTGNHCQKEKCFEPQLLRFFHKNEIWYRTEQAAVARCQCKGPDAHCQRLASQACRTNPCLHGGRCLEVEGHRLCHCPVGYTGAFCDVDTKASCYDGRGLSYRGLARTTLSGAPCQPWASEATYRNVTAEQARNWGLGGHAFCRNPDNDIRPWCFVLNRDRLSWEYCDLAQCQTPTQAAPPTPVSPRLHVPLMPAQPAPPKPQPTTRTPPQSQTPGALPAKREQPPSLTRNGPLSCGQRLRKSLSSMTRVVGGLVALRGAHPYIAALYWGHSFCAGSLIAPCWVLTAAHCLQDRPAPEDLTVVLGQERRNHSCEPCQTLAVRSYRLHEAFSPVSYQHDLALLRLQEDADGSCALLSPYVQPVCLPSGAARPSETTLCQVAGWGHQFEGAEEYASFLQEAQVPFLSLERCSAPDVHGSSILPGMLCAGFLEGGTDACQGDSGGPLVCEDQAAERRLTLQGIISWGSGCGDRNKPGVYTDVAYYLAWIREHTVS

[15] = cytotoxicity in HEK-293T cells, dose response, cytotoxicity control for BCR NF-kB inhibitor project, luminescence, B-cell screen hits (AID 489021); assay type: functional, cell-based;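 note: HEK-293T cells carrying an NF-kB luciferase reporter; cells exposed to compound for about 14 hours before viability readout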
Genome polyprotein = Genome polyprotein (dengue virus type 2, UniProt P29990); experiment: Dengue-2 NS5 methyltransferase inhibitors, primary screen, biochemical, confirmation dose response (AID 588689); assay type: functional
[16] = biological target: T8, Female germline-specific tumor suppressor gld-1 (Caenorhabditis elegans, UniProt Q17339); experiment: inhibitors of GLD-1 binding to TGE RNA, dose response, biochemical, fluorescence polarization, C. elegans (AID 2802);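 note: fluorescence polarization of labeled TGE RNA bound by purified gld-1 protein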
T8 sequence (Q17339 whole entry): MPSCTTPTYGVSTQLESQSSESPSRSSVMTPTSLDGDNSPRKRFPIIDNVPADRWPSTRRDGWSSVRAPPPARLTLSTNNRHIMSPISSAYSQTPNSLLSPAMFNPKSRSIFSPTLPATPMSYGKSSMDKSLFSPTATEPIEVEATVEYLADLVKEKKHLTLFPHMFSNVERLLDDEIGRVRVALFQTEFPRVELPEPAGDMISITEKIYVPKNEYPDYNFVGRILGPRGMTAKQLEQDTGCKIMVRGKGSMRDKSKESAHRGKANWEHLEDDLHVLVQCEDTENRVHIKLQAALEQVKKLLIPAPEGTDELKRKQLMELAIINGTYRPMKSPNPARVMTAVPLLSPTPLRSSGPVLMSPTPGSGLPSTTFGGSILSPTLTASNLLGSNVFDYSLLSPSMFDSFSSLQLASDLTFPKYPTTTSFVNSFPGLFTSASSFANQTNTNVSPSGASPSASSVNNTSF

Protein Rev = biological target: T9, Protein Rev (Human immunodeficiency virus type 1 group M subtype B (isolate HXB2)(HIV-1), UniProt P04618); experiment: inhibitors of Rev binding to RRE RNA, dose response, biochemical, fluorescence polarization, HIV-1 (AID 434976); set-up: species or system Human immunodeficiency virus 1
T9 sequence (P04618 whole entry): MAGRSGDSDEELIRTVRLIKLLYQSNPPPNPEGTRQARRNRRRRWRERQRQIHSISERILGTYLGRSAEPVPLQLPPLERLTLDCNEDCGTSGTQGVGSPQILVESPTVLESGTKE

Chain of Peroxisome proliferator-activated receptor gamma/Nuclear receptor coactivator 2 (P37231 whole entry): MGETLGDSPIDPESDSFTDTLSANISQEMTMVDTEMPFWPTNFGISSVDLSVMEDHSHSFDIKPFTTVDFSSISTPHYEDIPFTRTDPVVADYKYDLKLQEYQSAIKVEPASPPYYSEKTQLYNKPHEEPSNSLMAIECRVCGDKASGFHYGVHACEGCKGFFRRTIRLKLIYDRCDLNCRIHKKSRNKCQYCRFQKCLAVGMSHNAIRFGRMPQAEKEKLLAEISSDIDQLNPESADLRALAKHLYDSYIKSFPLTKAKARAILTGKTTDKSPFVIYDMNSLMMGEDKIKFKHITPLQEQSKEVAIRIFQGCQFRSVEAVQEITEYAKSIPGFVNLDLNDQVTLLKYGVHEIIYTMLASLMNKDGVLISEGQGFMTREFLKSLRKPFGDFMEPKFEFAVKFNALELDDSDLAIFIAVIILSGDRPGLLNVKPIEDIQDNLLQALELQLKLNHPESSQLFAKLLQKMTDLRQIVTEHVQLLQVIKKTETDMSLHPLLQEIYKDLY
Chain of Peroxisome proliferator-activated receptor gamma/Nuclear receptor coactivator 2 (Q15596 whole entry, further chain): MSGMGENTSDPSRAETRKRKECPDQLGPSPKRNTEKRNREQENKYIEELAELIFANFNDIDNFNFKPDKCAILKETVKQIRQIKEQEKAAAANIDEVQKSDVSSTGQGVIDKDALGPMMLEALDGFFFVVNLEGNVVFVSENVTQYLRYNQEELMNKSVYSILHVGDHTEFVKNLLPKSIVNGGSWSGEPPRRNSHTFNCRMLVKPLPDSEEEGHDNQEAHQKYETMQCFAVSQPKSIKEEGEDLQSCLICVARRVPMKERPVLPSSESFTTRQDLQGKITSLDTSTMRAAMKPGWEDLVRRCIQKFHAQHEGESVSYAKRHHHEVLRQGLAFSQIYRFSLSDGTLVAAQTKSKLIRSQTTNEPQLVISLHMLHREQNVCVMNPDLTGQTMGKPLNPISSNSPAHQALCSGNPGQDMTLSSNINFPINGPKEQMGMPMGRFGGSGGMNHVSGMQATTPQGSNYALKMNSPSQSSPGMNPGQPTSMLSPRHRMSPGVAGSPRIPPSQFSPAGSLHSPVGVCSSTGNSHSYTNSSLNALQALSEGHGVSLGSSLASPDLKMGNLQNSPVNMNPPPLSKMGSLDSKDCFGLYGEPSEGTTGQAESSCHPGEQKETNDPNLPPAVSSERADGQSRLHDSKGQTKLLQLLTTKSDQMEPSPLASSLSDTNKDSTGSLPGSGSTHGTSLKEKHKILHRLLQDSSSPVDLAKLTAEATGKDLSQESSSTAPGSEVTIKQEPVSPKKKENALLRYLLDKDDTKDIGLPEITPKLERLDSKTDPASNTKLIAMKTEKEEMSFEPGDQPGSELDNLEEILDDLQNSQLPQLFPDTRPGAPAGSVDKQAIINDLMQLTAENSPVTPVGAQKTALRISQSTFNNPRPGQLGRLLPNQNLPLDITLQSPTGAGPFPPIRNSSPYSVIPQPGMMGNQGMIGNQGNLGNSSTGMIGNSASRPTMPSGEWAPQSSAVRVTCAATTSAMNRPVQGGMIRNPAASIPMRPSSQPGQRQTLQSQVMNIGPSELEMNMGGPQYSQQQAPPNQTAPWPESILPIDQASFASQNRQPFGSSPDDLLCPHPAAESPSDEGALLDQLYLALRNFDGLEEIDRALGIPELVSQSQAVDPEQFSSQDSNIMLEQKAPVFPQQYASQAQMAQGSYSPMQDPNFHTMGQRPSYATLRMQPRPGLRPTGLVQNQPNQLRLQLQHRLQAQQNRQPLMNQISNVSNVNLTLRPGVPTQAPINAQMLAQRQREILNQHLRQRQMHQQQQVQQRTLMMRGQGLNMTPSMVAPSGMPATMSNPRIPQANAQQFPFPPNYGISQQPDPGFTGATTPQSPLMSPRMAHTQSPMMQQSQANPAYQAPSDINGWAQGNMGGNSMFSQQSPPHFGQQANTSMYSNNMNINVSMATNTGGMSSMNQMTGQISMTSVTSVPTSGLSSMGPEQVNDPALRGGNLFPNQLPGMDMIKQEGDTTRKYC
Chain of Peroxisome proliferator-activated receptor gamma/Nuclear receptor coactivator 3 (P37231 whole entry): as the sequence (P37231 whole entry) above
Chain of Peroxisome proliferator-activated receptor gamma/Nuclear receptor coactivator 3 (Q9Y6Q9 whole entry, further chain): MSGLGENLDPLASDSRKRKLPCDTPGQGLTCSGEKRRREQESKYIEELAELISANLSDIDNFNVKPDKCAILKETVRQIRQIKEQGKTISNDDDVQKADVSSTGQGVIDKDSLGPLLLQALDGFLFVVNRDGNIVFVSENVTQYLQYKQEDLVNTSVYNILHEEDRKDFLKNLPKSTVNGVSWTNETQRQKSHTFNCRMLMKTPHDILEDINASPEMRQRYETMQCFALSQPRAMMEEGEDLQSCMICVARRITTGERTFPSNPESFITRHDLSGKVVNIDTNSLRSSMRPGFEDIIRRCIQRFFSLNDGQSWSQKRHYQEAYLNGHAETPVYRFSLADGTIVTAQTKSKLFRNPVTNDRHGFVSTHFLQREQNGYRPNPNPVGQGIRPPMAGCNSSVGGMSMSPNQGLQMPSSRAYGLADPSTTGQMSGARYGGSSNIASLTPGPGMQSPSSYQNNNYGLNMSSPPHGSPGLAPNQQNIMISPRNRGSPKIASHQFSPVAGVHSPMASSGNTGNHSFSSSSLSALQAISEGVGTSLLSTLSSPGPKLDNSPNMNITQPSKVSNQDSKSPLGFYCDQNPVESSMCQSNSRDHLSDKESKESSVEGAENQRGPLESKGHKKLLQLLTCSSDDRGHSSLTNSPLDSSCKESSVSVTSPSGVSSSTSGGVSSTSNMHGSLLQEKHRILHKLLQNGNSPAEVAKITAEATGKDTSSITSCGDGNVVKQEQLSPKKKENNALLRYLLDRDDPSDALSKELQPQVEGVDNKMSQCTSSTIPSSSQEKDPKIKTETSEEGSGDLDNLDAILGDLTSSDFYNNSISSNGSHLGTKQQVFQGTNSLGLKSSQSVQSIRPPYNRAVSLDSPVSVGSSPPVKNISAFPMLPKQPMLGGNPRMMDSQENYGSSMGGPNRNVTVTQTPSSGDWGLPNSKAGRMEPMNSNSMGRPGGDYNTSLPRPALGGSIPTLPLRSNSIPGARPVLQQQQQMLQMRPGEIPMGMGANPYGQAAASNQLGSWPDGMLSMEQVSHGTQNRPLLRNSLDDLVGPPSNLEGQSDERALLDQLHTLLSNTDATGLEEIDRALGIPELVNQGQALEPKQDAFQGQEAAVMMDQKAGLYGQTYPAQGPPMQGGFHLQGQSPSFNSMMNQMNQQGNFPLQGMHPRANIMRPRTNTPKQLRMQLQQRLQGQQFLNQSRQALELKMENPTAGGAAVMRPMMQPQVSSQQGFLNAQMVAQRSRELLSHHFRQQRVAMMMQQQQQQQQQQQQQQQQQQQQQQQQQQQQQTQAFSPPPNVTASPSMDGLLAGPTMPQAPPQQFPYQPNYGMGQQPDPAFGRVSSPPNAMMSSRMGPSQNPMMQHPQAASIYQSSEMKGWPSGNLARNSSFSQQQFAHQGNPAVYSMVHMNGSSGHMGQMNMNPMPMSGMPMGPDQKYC
Chain of Glyceraldehyde-3-phosphate dehydrogenase (P04406 whole entry): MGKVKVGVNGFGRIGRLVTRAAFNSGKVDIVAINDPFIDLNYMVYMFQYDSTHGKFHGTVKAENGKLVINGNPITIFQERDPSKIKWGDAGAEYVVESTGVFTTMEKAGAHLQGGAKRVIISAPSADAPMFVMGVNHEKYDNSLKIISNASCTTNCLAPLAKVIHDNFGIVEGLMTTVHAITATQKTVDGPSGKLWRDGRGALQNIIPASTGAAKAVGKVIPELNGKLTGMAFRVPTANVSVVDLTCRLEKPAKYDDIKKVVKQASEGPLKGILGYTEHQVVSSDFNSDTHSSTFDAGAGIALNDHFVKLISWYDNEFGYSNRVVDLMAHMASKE
Chain of Serine/threonine-protein phosphatase PP1-alpha catalytic subunit (P62136 whole entry): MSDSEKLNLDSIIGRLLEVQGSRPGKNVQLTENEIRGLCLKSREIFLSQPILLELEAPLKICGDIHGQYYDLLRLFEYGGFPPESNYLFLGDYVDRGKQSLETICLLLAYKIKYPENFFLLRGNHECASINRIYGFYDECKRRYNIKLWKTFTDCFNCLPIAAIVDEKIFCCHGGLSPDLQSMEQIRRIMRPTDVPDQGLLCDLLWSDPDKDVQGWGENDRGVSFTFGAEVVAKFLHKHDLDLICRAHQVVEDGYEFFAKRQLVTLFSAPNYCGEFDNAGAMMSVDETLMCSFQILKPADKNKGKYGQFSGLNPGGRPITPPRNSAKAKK
Chain of Nonstructural protein 1 (Q194T2 whole entry): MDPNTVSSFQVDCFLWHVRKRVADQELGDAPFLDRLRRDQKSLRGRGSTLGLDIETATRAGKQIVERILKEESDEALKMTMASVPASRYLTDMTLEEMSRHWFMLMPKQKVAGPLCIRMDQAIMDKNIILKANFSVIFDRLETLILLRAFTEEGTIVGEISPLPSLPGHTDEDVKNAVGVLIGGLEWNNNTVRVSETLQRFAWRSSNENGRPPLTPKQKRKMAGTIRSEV

In the case of `O=S(=O)(Nc1cnc2ccccc2c1)c1ccccc1`, the IC50 [1] is reported as > 100 µM (not active) and the IC50 [2] is reported as > 100 µM (inactive).
In the case of `CC(=O)Nc1nnc(S(C)(=O)=O)[nH]1`, the IC50 [1] is reported as > 100 µM (not active) and the IC50 [2] is reported as > 100 µM (inactive).
In the case of `CCOC(=O)c1cnc(-n2nc(C)cc2C)nc1NCCc1ccccc1`, the IC50 [3] is reported as 6.96 µM (active), the IC50 [4] is reported as > 67 µM (not active) and the EC50 [5] is reported as 2.04 µM (active). For the same compound, the EC50 [6] was > 30 µM (not active).
In the case of `CN1CCN(c2cc(-c3cc(O)c4ncccc4c3)ccn2)CC1`, the IC50 [7] is reported as 5.17 µM (active), the AC50 [8] is reported as 1.58 µM (active) and the IC50 (Nonstructural protein 1) is reported as 9.85 µM (active). For the same compound, the IC50 [9] was 10.8 µM (active), the IC50 [10] was 15.6 µM (active) and the IC50 (Bcl-2-related protein A1) was 12.5 µM (active). For the same compound, the IC50 [11] was 6.88 µM (active).
With `CCCCc1nc2sc3c(SCC(=O)NCc4ccco4)ncnc3c2c2c1CCC2` the EC50 [12] was > 79.4 µM (not active), the EC50 [13] was 58.8 µM (not active) and the EC50 [14] was 78.6 µM (inactive).
In the case of `CCOc1cc(CO)ccc1OCC(=O)N1CCCCC1`, the IC50 (Coagulation factor XII) is reported as > 50 µM (inactive).
With `COc1cnc(-c2ccccn2)nc1Oc1cccc(Cl)c1` the IC50 [3] was 8.46 µM (active) and the IC50 [4] was > 67 µM (not active).
In the case of `Cc1cc(N2C(=O)C(O)=C(C(=O)c3ccc(Cl)cc3)C2c2cccc(Br)c2)no1` (centres undefined), the EC50 [12] is reported as > 79.4 µM (not active), the EC50 [13] is reported as 113 µM (not active) and the EC50 [14] is reported as > 79.4 µM (inactive).
With `COc1ccccc1CC(=O)NN1C(=O)c2ccccc2C1=O` the IC50 (Coagulation factor XII) was > 50 µM (inactive).
For `O=C1c2ccccc2C(=O)N1c1nnc(Cc2ccc(F)cc2)[nH]1`, the IC50 [1] was > 100 µM (not active) and the IC50 [2] was 4.66 µM (active).
In the case of `Cn1c(=O)cc(SCC(=O)N2CCCC2)c2cc(Cl)ccc21`, the IC50 [15] is reported as > 80 µM (inactive), the EC50 [12] is reported as > 79.4 µM (not active) and the EC50 [13] is reported as > 79.4 µM (not active). The EC50 [14] was > 79.4 µM (inactive).
In the case of `Cc1ccc(C(=O)N/N=C/c2ccc(-c3ccc(Br)cc3[N+](=O)[O-])o2)o1`, the IC50 (Genome polyprotein) is reported as > 100 µM (active), the IC50 [16] is reported as 10.4 µM (inactive) and the IC50 (Protein Rev) is reported as > 25.1 µM (not active).
